In patent US7981893B2, “Heteroaryl compounds, compositions thereof, and methods of treatment therewith” (Signal Pharmaceuticals, LLC, priority 2006, dated 2011):

Row | melting point | SMILES
1 | 305 to 308 °C | O=c1[nH]c2ncc(-c3ccc4[nH]ccc4c3)nc2n1CC1CCOCC1 [Compound 146, 6-(1H-Indol-5-yl)-1-((tetrahydro-2H-pyran-4-yl)methyl)-1H-imidazo[4,5-b]pyrazin-2(3H)-one]
2 | 217 to 220 °C | O=c1[nH]c2ncc(-c3ccc4[nH]cnc4c3)nc2n1CC1CCCCC1 [Compound 148, 6-(1H-Benzo[d]imidazol-5-yl)-1-(cyclohexylmethyl)-1H-imidazo[4,5-b]pyrazin-2(3H)-one]
3 | 233 to 236 °C | NC(=O)c1ccc(-c2cnc3[nH]c(=O)n(CCC4CCOCC4)c3n2)cc1 [Compound 149, 4-(2-oxo-3-(2-(Tetrahydro-2H-pyran-4-yl)ethyl)-2,3-dihydro-1H-imidazo[4,5-b]pyrazin-5-yl)benzamide]
4 | 299 to 301 °C | O=c1[nH]c2ncc(-c3cccc(-c4cn[nH]n4)c3)nc2n1CC1CCCCC1 [Compound 150, 6-(3-(2H-1,2,3-Triazol-4-yl)phenyl)-1-(cyclohexylmethyl)-1H-imidazo[4,5-b]pyrazin-2(3H)-one]
5 | 284 to 287 °C | O=c1[nH]c2ncc(-c3ccc(-n4ccnc4)cc3)nc2n1CC1CCCCC1 [Compound 151, 6-(4-(1H-Imidazol-1-yl)phenyl)-1-(cyclohexylmethyl)-1H-imidazo[4,5-b]pyrazin-2(3H)-one]
6 | 311 to 313 °C | O=c1[nH]c2ncc(-c3ccnc(O)c3)nc2n1CC1CCCCC1 [Compound 154, 1-(Cyclohexylmethyl)-6-(2-hydroxypyridin-4-yl)-1H-imidazo[4,5-b]pyrazin-2(3H)-one]
7 | 349 to 351 °C | O=c1[nH]c2ncc(-c3ccc(-c4ncc[nH]4)cc3)nc2n1CC1CCCCC1 [Compound 156, 6-(4-(1H-Imidazol-2-yl)phenyl)-1-(cyclohexylmethyl)-1H-imidazo[4,5-b]pyrazin-2(3H)-one]
8 | 276 to 278 °C | O=c1[nH]c2ncc(-c3ccc(-n4ccnn4)cc3)nc2n1CC1CCCCC1 [Compound 157, 6-(4-(1H-1,2,3-Triazol-1-yl)phenyl)-1-(cyclohexylmethyl)-1H-imidazo[4,5-b]pyrazin-2(3H)-one]
9 | 315 to 318 °C | Cc1nc(-c2ccc(-c3cnc4[nH]c(=O)n(CC5CCCCC5)c4n3)cc2)n[nH]1 [Compound 159, 1-(Cyclohexylmethyl)-6-(4-(5-methyl-1H-1,2,4-triazol-3-yl)phenyl)-1H-imidazo[4,5-b]pyrazin-2(3H)-one]
10 | 292 to 294 °C | O=c1[nH]c2ncc(-c3ccc(-c4cc[nH]n4)cc3)nc2n1CC1CCCCC1 [Compound 160, 6-(4-(1H-Pyrazol-3-yl)phenyl)-1-(cyclohexylmethyl)-1H-imidazo[4,5-b]pyrazin-2(3H)-one]
11 | 305 to 307 °C | O=c1[nH]c2ncc(-c3ccc(-c4cn[nH]c4)cc3)nc2n1CC1CCCCC1 [Compound 161, 6-(4-(1H-Pyrazol-4-yl)phenyl)-1-(cyclohexylmethyl)-1H-imidazo[4,5-b]pyrazin-2(3H)-one]
12 | 303 to 305 °C | O=c1[nH]c2ncc(-c3ccc(-c4n[nH]c(C(F)(F)F)n4)cc3)nc2n1CC1CCCCC1 [Compound 163, 1-(Cyclohexylmethyl)-6-(4-(5-(trifluoromethyl)-1H-1,2,4-triazol-3-yl)phenyl)-1H-imidazo[4,5-b]pyrazin-2(3H)-one]
13 | 256 to 258 °C | O=c1[nH]c2ncc(-c3ccc(O)cc3)nc2n1CC1CCCO1 (centres unmarked) [Compound 165, 6-(4-Hydroxyphenyl)-1-((tetrahydrofuran-2-yl)methyl)-1H-imidazo[4,5-b]pyrazin-2(3H)-one]
14 | 305 to 307 °C | O=c1[nH]c2ncc(-c3cccc(-c4nc[nH]n4)c3)nc2n1CC1CCCCC1 [Compound 166, 6-(3-(1H-1,2,4-Triazol-3-yl)phenyl)-1-(cyclohexylmethyl)-1H-imidazo[4,5-b]pyrazin-2(3H)-one]
15 | 224 to 226 °C | Cn1cc(-c2cnc3[nH]c(=O)n(CC4CCOCC4)c3n2)cn1 [Compound 170, 6-(1-Methyl-1H-pyrazol-4-yl)-1-((tetrahydro-2H-pyran-4-yl)methyl)-1H-imidazo[4,5-b]pyrazin-2(3H)-one]
16 | 256 to 258 °C | O=c1[nH]c2ncc(-c3ccc(O)cc3)nc2n1CC1CCOC1 (centres unmarked) [Compound 172, 6-(4-Hydroxyphenyl)-1-((tetrahydrofuran-3-yl)methyl)-1H-imidazo[4,5-b]pyrazin-2(3H)-one]
17 | 281 to 283 °C | O=c1[nH]c2ncc(-c3ccc(-c4n[nH]c(CN5CCOCC5)n4)cc3)nc2n1CC1CCOCC1 [Compound 175, 6-(4-(5-(Morpholinomethyl)-1H-1,2,4-triazol-3-yl)phenyl)-1-((tetrahydro-2H-pyran-4-yl)methyl)-1H-imidazo[4,5-b]pyrazin-2(3H)-one]
18 | 305 to 306 °C | O=C1CCCN1CCCn1c(=O)[nH]c2ncc(-c3ccc(O)cc3)nc21 [Compound 176, 6-(4-Hydroxyphenyl)-1-(3-(2-oxopyrrolidin-1-yl)propyl)-1H-imidazo[4,5-b]pyrazin-2(3H)-one]

Row | melting point | SMILES
19 | 273 to 276 °C | COCc1nc(-c2ccc(-c3cnc4[nH]c(=O)n(CC5CCOCC5)c4n3)cc2)n[nH]1 [Compound 180, 6-(4-(5-(Methoxymethyl)-1H-1,2,4-triazol-3-yl)phenyl)-1-((tetrahydro-2H-pyran-4-yl)methyl)-1H-imidazo[4,5-b]pyrazin-2(3H)-one]
20 | 222 to 224 °C | Cc1n[nH]cc1-c1cnc2[nH]c(=O)n(CC3CCOCC3)c2n1 [Compound 182, 6-(3-Methyl-1H-pyrazol-4-yl)-1-((tetrahydro-2H-pyran-4-yl)methyl)-1H-imidazo[4,5-b]pyrazin-2(3H)-one]
21 | 238 to 240 °C | O=c1[nH]c2ncc(-c3cn[nH]c3)nc2n1CC1CCOCC1 [Compound 183, 6-(1H-Pyrazol-4-yl)-1-((tetrahydro-2H-pyran-4-yl)methyl)-1H-imidazo[4,5-b]pyrazin-2(3H)-one]
22 | 249 to 253 °C | CC(C)(O)c1nc(-c2ccc(-c3cnc4[nH]c(=O)n(CC5CCOCC5)c4n3)cc2)n[nH]1 [Compound 185, 6-(4-(5-(2-Hydroxypropan-2-yl)-1H-1,2,4-triazol-3-yl)phenyl)-1-((tetrahydro-2H-pyran-4-yl)methyl)-1H-imidazo[4,5-b]pyrazin-2(3H)-one]
23 | 305 to 308 °C | CC(C)c1nc(-c2ccc(-c3cnc4[nH]c(=O)n(CC5CCOCC5)c4n3)cc2)n[nH]1 [Compound 186, 6-(4-(5-Isopropyl-1H-1,2,4-triazol-3-yl)phenyl)-1-((tetrahydro-2H-pyran-4-yl)methyl)-1H-imidazo[4,5-b]pyrazin-2(3H)-one]
24 | 367 to 370 °C | O=c1[nH]c2ncc(-c3cnc4[nH]cnc4c3)nc2n1CC1CCOCC1 [Compound 190, 6-(3H-imidazo[4,5-b]pyridin-6-yl)-1-((tetrahydro-2H-pyran-4-yl)methyl)-1H-imidazo[4,5-b]pyrazin-2(3H)-one]
25 | 294 to 296 °C | O=c1[nH]c2ncc(-c3ccc(-n4cccn4)cc3)nc2n1CC1CCOCC1 [Compound 192, 6-(4-(1H-Pyrazol-1-yl)phenyl)-1-((tetrahydro-2H-pyran-4-yl)methyl)-1H-imidazo[4,5-b]pyrazin-2(3H)-one]
26 | 295 to 297 °C | O=c1[nH]c2ncc(-c3ccc(-c4nnc[nH]4)cc3)nc2n1CCN1CCOCC1 [Compound 193, 6-(4-(4H-1,2,4-Triazol-3-yl)phenyl)-1-(2-morpholinoethyl)-1H-imidazo[4,5-b]pyrazin-2(3H)-one]
27 | > 300 °C | O=c1[nH]c2ncc(-c3ccc(-c4nc5ccccc5[nH]4)cc3)nc2n1CC1CCOCC1 [Compound 194, 6-(4-(1H-Benzo[d]imidazol-2-yl)phenyl)-1-((tetrahydro-2H-pyran-4-yl)methyl)-1H-imidazo[4,5-b]pyrazin-2(3H)-one]
28 | 258 to 260 °C | O=c1[nH]c2ncc(-c3ccc(-c4n[nH]c(CO)n4)cc3)nc2n1CC1CCOCC1 [Compound 196, 6-(4-(5-(Hydroxymethyl)-1H-1,2,4-triazol-3-yl)phenyl)-1-((tetrahydro-2H-pyran-4-yl)methyl)-1H-imidazo[4,5-b]pyrazin-2(3H)-one]
29 | 338 to 340 °C | O=C1CCC(Cn2c(=O)[nH]c3ncc(-c4ccc(O)cc4)nc32)N1 (centres unmarked) [Compound 198, 6-(4-Hydroxyphenyl)-1-((5-oxopyrrolidin-2-yl)methyl)-1H-imidazo[4,5-b]pyrazin-2(3H)-one]
30 | 250 to 254 °C (dec.) | Cc1nc(-c2ccc(-c3cnc4[nH]c(=O)n(CC5CCOCC5)c4n3)cc2)[nH]c1C [Compound 199, 6-(4-(4,5-Dimethyl-1H-imidazol-2-yl)phenyl)-1-((tetrahydro-2H-pyran-4-yl)methyl)-1H-imidazo[4,5-b]pyrazin-2(3H)-one]
31 | 353 to 356 °C | O=c1[nH]c2ncc(-c3ccc(-c4nc[nH]n4)nc3)nc2n1CC1CCOCC1 [Compound 202, 6-(6-(1H-1,2,4-Triazol-3-yl)pyridin-3-yl)-1-((tetrahydro-2H-pyran-4-yl)methyl)-1H-imidazo[4,5-b]pyrazin-2(3H)-one]
32 | 300 to 301 °C | O=C1CCCN1CCn1c(=O)[nH]c2ncc(-c3ccc(-c4nc[nH]n4)cc3)nc21 [Compound 203, 6-(4-(1H-1,2,4-Triazol-3-yl)phenyl)-1-(2-(2-oxopyrrolidin-1-yl)ethyl)-1H-imidazo[4,5-b]pyrazin-2(3H)-one]
33 | > 250 °C | COCCNc1ncc(-c2cnc3[nH]c(=O)n(CC4CCCCC4)c3n2)cn1 [Compound 212, 1-(Cyclohexylmethyl)-6-(2-(2-methoxyethylamino)pyrimidin-5-yl)-1H-imidazo[4,5-b]pyrazin-2(3H)-one]
34 | 290 to 292 °C | Cc1nc(-c2ccc(-c3cnc4[nH]c(=O)n(CCC5CCOCC5)c4n3)cc2)n[nH]1 [Compound 215, 6-(4-(5-methyl-1H-1,2,4-triazol-3-yl)phenyl)-1-(2-(tetrahydro-2H-pyran-4-yl)ethyl)-1H-imidazo[4,5-b]pyrazin-2(3H)-one]
35 | 293 to 295 °C | O=c1[nH]c2ncc(-c3ccc(-c4ncc[nH]4)cc3)nc2n1CCC1CCOCC1 [Compound 216, 6-(4-(1H-imidazol-2-yl)phenyl)-1-(2-(tetrahydro-2H-pyran-4-yl)ethyl)-1H-imidazo[4,5-b]pyrazin-2(3H)-one]
